# Measured values published in patent US10435399B2, “HDAC6 inhibitory heterocyclic compound” (TAKEDA PHARMACEUTICAL COMPANY LIMITED, priority 2017, dated 2019).
# Assays:
# [1] = target: T1, HDAC6 enzyme (Homo sapiens, UniProt Q9UBN7); assay: HDAC6 enzyme inhibitory activity (HDAC-Glo I/II Assay kit); format: biochemical; conditions: 10 μM; wells without enzyme = 100% inhibition; read-out: HDAC6 inhibitory rate (%) (10 μM)
# T1 construct: transducing full length HDAC6 gene into Sf-9 insect cells; GST; purchased SignalChem; host or cells: Sf-9 insect cells
# T1 sequence (Q9UBN7 1-1215): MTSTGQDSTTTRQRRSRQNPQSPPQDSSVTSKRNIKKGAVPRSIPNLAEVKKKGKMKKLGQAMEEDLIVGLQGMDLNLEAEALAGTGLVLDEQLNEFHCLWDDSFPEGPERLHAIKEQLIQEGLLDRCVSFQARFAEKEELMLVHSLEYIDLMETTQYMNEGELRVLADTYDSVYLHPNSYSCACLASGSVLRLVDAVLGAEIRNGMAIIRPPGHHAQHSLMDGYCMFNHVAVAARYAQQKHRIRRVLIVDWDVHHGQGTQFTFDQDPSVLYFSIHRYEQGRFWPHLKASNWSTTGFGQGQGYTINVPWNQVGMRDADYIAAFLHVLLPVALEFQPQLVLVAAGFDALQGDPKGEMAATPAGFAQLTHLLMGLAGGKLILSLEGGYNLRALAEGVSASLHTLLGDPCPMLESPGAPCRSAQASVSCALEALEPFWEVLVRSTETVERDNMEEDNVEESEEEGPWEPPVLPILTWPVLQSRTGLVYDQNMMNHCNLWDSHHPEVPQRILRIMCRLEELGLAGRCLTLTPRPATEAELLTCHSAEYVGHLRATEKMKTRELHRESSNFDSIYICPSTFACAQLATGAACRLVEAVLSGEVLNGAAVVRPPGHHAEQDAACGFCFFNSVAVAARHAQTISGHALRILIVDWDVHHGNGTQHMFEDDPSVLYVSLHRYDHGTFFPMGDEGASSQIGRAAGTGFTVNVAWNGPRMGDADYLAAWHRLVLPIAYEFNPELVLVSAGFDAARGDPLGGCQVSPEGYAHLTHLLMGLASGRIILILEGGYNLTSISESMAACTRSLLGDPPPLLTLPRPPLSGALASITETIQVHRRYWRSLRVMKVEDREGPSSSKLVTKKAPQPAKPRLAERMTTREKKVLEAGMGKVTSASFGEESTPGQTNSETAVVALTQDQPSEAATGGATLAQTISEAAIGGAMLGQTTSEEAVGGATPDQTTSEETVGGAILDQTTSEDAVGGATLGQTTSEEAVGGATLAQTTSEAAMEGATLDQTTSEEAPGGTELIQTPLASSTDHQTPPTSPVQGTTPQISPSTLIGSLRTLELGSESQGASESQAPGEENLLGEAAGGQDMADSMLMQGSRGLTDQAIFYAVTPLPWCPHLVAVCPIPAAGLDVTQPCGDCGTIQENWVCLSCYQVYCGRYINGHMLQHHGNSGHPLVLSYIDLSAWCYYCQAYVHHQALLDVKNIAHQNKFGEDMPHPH
# Method in brief: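 Luminescence read-out after 20 min reaction with HDAC-Glo substrate-developer, following 60 min room-temperature preincubation of compound with Sf-9-expressed, GST-purified full-length enzyme. Inhibition is relative to no-enzyme wells set as 100%.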
# [2] = system: acetylated tubulin in brain (hippocampus); assay: Increase in acetylated tubulin in brain (hippocampus ELISA); format: in vivo, C57BL/6J mouse; conditions: mouse hippocampus, oral 3 mg/kg, 1 h after administration, vs vehicle
# Method: Increase in Acetylated Tubulin in Brain
# A drug was suspended in 0.5% methyl cellulose to prepare a suspension for administration, having a concentration shown in Table 3. The suspension was orally administered into 8 to […] male C57BL/6J mouse, and after the passage of the time shown in Table 3, the brain was taken out, and hippocampus was obtained. The hippocampus was homogenized under RIPA extract (Wako) to which protease inhibitor (Thermo) and phosphatase inhibitor (Thermo) were added, and centrifuged in 15,000 g for 15 min to prepare a protein extract. The acetylated tubulin and total tubulin in the extract were detected by the following ELISA method. Tubulin antibody (Sigma) was immobilized on 96-well plate (Microlite2+, Thermo), and the plate was stored at 4° C. […] The plate was washed, HRP substrate was added thereto, and the luminescence was measured using a plate reader. The acetylated tubulin and total tubulin were quantified from logistics curve based on dilution series using the mouse hippocampus tissue extract, and the acetylated tubulin relative to total tubulin was calculated, and evaluated as an relative tubulin acetylation level. […] After F test for vehicle group and drug group, the significant difference between the two groups was analyzed by Student t-test or Welch test (indicated as * p<0.05, ** p<0.01). […]
# [3] = system: TK6 cells; assay: γH2AX assay using TK6 cells; format: cell-based, Human; conditions: 4 hr treatment, up to 100 μM
# Method: γH2AX Assay Using TK6 Cells
# Human lymphoblasts-derived TK6 cells were treated with the compounds of Examples 489, 512 or 519 at 0, 10, 30 or 100 μmol/L (final concentration) for 4 hr, and the presence or absence of DNA damage was evaluated by measuring phosphorylation of histone H2AX (γH2AX) as a marker. In addition, cytotoxicity after 24-hr treatment was also evaluated.
# Exponentially growing TK6 cells were prepared at the cell density of 4×10^5 cells/mL in a culture medium, and was added to a 96-well plate by 100 μL/well. A test compound solution (2% DMSO) prepared using a culture solution, having twice the concentration on the above-mentioned final concentrations, was added thereto by 100 μL/well. This plate was incubated at 37° C., the cell suspension after 4 hr was sampled, and stained using In Vitro MultiFlow™ DNA Damage Kit (Litron), and H2AX phosphorylation level in each nucleus was measured using a flow cytometer and average value was calculated. The H2AX phosphorylation level in the concurrent vehicle control group was also measured and average value was calculated. The rate of change in the H2AX phosphorylation level in the treatment groups relative to that in the control group was calculated, and Dunnett test (significance level: two-tailed 1%) was performed. In addition, the cell suspension after 24 hr treatment was sampled, and the nucleus number was measured, and variation in the nucleus number in the treatment groups relative to that in the concurrent vehicle control group was used as an indicator of cytotoxicity. […] Therefore, the potential of the compounds for DNA strand breakage was judged to be negative under this test condition.
# [4] = system: tauopathy mouse model; conditions: cited from earlier work
# [5] = system: bone-marrow cells; assay: Micronucleus test in rats (bone-marrow cells); format: in vivo, rats (Crl:CD(SD)); conditions: rat, in vivo, po
# Method: Combination Assay of Micronucleus Test and Comet Assay in Rats […] Bone-marrow smear for micronucleus analysis was prepared as follows. Femur was cut at both ends, and washed with fetal bovine serum (FBS) in a centrifuging tube, and the obtained bone-marrow fluid was centrifuged for 5 min at room temperature. The supernatant was removed, and the cell sediment was suspended in the remaining small amount of the supernatant. A part of the suspension was dropped on a glass slide, and a cover glass was placed thereon to give a bone-marrow smear. The smear was dried well, and fixed with methanol for 5 min. The bone-marrow smear of negative control, that of treatment groups as well as the previously prepared bone-marrow smear of positive control group were encoded, and observed by the blind method. An acridine orange solution (40 μg/mL) was dropped (several drops) to the smear just before observation, and a cover glass was placed thereon. […] In addition, as an index of growth inhibitory effect on bone-marrow cell, total of 500 erythrocytes [immature erythrocytes+mature erythrocytes (ME)] per individual were observed, and immature erythrocyte rate (IE %) relative to the total number of erythrocytes was calculated.
# [6] = system: liver and glandular stomach cells; assay: Comet assay in rats (liver and glandular stomach); format: in vivo, rats (Crl:CD(SD)); conditions: 3 days, test article = compound of Example 489
# Method: Combination Assay of Micronucleus Test and Comet Assay in Rats
# The compound of Example 489 at doses of 1000 and 2000 mg/kg was orally administered to 8 to 9-week-old rats (Crl:CD(SD), five/group) once daily for 3 days, and micronucleus induction was evaluated in bone-marrow cells, and DNA damage was evaluated by DNA fragmentation of cell nucleus in the liver and glandular stomach.
# Sample for comet assay was obtained from liver and glandular stomach by the following procedures. A part of left lateral lobe of liver was washed well with a cooled mincing buffer solution (Hanks' balanced salt solution containing 20 mmol/L EDTA and 10 vol % DMSO, pH7.5), and minced finely with dissecting scissors. This sample was kept on ice for 15 to 30 seconds, the precipitated large cell mass was removed, and the obtained cell suspension was kept on ice. Glandular stomach was added to a cooled mincing buffer solution, and kept on ice for 15 to 30 min. Then, the surface epithelium was removed by scraping gently twice, the stomach mucosa was washed well with a cooled mincing buffer solution, and the mucosa surface was taken out by scraping carefully four times or five times. This was kept on ice for 15 to 30 seconds, the precipitated large cell mass was removed, and the obtained cell suspension was kept on ice.
# The liver and glandular stomach cell suspensions prepared by the above-mentioned procedures were added to 0.5 w/v % low-melting agarose so that the concentration became 10 vol % or less, 40 μL of the suspension was dropped to MAS-coated slide (Matsunami Glass Ind., Ltd.), and fixed to give a slide sample. The slide sample was immersed in a cooled cell lysate [an aqueous solution containing 2.5 mol/L sodium chloride, 100 mmol/L EDTA, 10 mmol/L tris(hydroxymethyl)aminomethane, 10 vol % DMSO and 1 vol % Triton X-100, pH 10.0], and kept overnight under light shielding in a refrigerator (2 to 8° C.).
# The slide sample was washed with ultrapure water, set at random into an electrophoresis apparatus filled with an alkali buffer solution (an aqueous solution containing 0.3 mol/L sodium hydroxide and 1 mmol/L EDTA, pH >13) for electrophoresis. After confirming that the sample was completely immersed, the sample was left for 20 min to unwind the strands. Next, electrophorese was performed at a constant voltage of 0.7 to 1 V/cm (current is set about 0.30 A) for 20 min (the electrophoresis apparatus was kept on ice so that the alkali buffer solution for electrophoresis was kept at a constant temperature of 10° C. or below, during from the dissociation of the strands to electrophoresis). After electrophoresis, the slide sample was immersed in a neutralizing solution [0.4 mol/L aqueous tris(hydroxymethyl)aminomethane solution, pH 7.5] for 5 min or longer. Then, the slide sample was immersed in ethanol for 5 min or longer, and air-dried. […] The slide samples for negative control, test compound and positive control groups were encoded, and analyzed by the blind method. In each individual animal, 150 of suitable cells were selected for observation using a biological microscope with fluorescence attachment at 200-fold final magnification, and analyzed by image analysis software (Comet Assay IV, Perceptive Instruments Ltd.). The degree of the DNA damage was evaluated by % tail intensity calculated automatically from image analysis software. The median of the % tail intensity was calculated in each slide sample, and the average of the median was calculated in each individual. […]
smiles,measurement,setting,value
"CC(F)(F)C(=O)N[C@H]1[C@H](N2Cc3ccc(-c4nnc(C(F)F)o4)cc3C2=O)CCCC1(F)F [Example 512, N-((1S,6R)-6-(6-(5-(difluoromethyl)-1,3,4-oxadiazol-2-yl)-1-oxo-1,3-dihydro-2H-isoindol-2-yl)-2,2-difluorocyclohexyl)-2,2-difluoropropanamide]",inhibition at 10 µM,[1],99%
same,relative tubulin acetylation level (acetylated tubulin relative to total tubulin),[2],increase in significant tubulin acetylation level was observed
same,histone H2AX phosphorylation (γH2AX) resulted from DNA strand breakage,[3],did not induce histone H2AX phosphorylation
same,potential for DNA strand breakage (judgement),[3],negative
CN1CCc2c(c3ccccc3n2Cc2ccc(C(=O)NO)cc2)C1 [Tubastatin A],acetylation of tubulin,[4],increases acetylation of tubulin
same,therapeutic effectiveness,[4],shows therapeutic effectiveness
CC[C@@]1(O)C(=O)OCc2c1cc1n(c2=O)Cc2cc3cc4c(cc3nc2-1)OCO4 [test article],"micronucleated immature erythrocytes incidences (MNIE %), mean ± SD",[5]; 1000 mg/kg/day,0.10 ± 0.04%
same,"micronucleated immature erythrocytes incidences (MNIE %), mean ± SD",[5]; 2000 mg/kg/day,0.10 ± 0.03%
same,"% tail DNA, mean ± SD","[6]; rat liver, 1000 mg/kg/day oral",0.08 ± 0.03%
same,"% tail DNA, mean ± SD","[6]; rat liver, 2000 mg/kg/day oral",0.11 ± 0.04%
same,"% tail DNA, mean ± SD","[6]; rat stomach, 1000 mg/kg/day oral",0.59 ± 0.22%
same,"% tail DNA, mean ± SD","[6]; rat stomach, 2000 mg/kg/day oral",0.48 ± 0.21%
